Like-named read-outs stand apart in the source and are kept apart here. Where no end group is shown, it is not given here.
How the values were obtained:
[1] = biological target: T1, recombinant human HLA-E*0103 (Homo sapiens, UniProt P13747); experiment: biochemical; type: binding
T1 construct: made in house; host or cells: E. coli

TGFβ1 = type: cell-based, human
CD3+CD8+CD56- T-cells = type: cell-based, human; details: for percentage of proliferation within CD3+CD8+CD56- cells: PBMCs, peptide 10 µg/ml (PHA 2 µg/ml, PPD 5 µg/ml), IL-7, IL-2 day 7, CFSE read day 10
CD8+ T-cells = type: cell-based, human
[2] = concentration of peptide reducing fluorescence of standard peptide VMAPC(Fl)TLLL (100 fmol) by 50%, […], gel filtration HPLC, emission 528 nm, at least two separate experiments, read-out: Binding

Molecule	IC50 [1, 2] [µM]	other results
PMADIAAAL-OH [Peptide 23, PMADIAAAL]	> 50	
REPRRGPRL-OH [Peptide 51]		IC50 [1]: > 50 µM
EMVLRADQL-OH [Peptide 11]	> 50	
VLRPGGHFL [Peptide 68]	1.8	
LMGAEADAL-OH [Peptide 17, LMGAEADAL]	> 50	
RSCPRLTIL-OH [Peptide 64]	> 50	
CC[C@H](C)[C@H](N)C(=O)N[C@@H](CC(C)C)C(=O)N1CCC[C@H]1C(=O)N[C@@H](CO)C(=O)N[C@@H](CC(=O)O)C(=O)N[C@@H](C)C(=O)N1CCC[C@H]1C(=O)N[C@H](C(=O)N[C@@H](CC(C)C)C(=O)O)C(C)C [Peptide 49]	0.2	
VMTTVLATL [Peptide 34]	1.8	
FLAADALVL-OH [Peptide 15]	> 50	
IEPRGAQAL-OH [Peptide 57, IEPRGAQAL]		IC50 [1]: > 50 µM
VLLPGLPYL [Peptide 50]		IC50 [1]: 8 µM
SMADRAENL-OH [Peptide 1]	> 50	
RPANLAFFL [Peptide 59]		IC50 [1]: 1.3 µM
RMAATAQVL [Peptide 14]	2	
CC[C@H](C)[C@H](N)C(=O)N[C@@H](CCSC)C(=O)N[C@@H](C)C(=O)N[C@@H](CC(N)=O)C(=O)N[C@@H](CCCNC(=N)N)C(=O)N[C@@H](C)C(=O)N[C@@H](CCC(N)=O)C(=O)N[C@H](C(=O)N[C@@H](CC(C)C)C(=O)O)C(C)C [Peptide 3]	0.4	
GMGMVGTAL-OH [Peptide 35, GMGMVGTAL]	> 50	
AMAGSIDLL [Peptide 36]	34	
LMHYRGELL [Peptide 29]		IC50 [1]: 20 µM
CSCC[C@H](NC(=O)[C@@H](N)CCC(N)=O)C(=O)N[C@@H](CCCCN)C(=O)N[C@@H](Cc1ccccc1)C(=O)N[C@@H](Cc1ccc(O)cc1)C(=O)N[C@@H](C)C(=O)N[C@H](C(=O)N[C@@H](C)C(=O)N[C@@H](CC(C)C)C(=O)O)C(C)C [Peptide 5, QMKFYAVAL]		IC50 [1]: 1.5 µM
LAP: recombinant latency associated peptide, reverts active TGFβ to a latent, inactive form (R&D systems)		increased proliferation on addition of LAP to the indicator clone only (TGFβ1; Rp15 1-1 clone without Tregs, data not shown): ≤ 20%; increase of proliferation on addition of LAP to co-cultures of Tregs and indicator clones (TGFβ1; Tregs + Rp15 1-1, 0.5 µg/ml cognate peptide, HLA-DR3+ APCs, 3 days): over 40%
RLASCRDAL-OH [Peptide 61, RLASCRDAL]		number of PPD responding adult donors recognizing the peptide (CD3+CD8+CD56- T-cells; 10 PPD responders, recognition = >10% proliferating CD3+CD8+CD56- T-cells): not by any; number of BCG vaccinees recognizing the peptide (CD8+ T-cells): 2
RLANLLPLI [Peptide 48]	32	
LMGALAVVL [Peptide 26]	21	
VMATRRNVL [Peptide 55]	16	
RLRPELAGL [Peptide 52]	46	
EMLTSRGLL-OH [Peptide 37]		IC50 [1]: > 50 µM

Molecule	IC50 [1, 2] [µM]	other results
DLPSRLGKI-OH [Peptide 58]	> 50	
GMNVTAPAL [Peptide 7, GMNVTAPAL]	8	
PMKRTALAL [Peptide 6, PMKRTALAL]	18	
WLPPLLTNL [Peptide 69]		IC50 [1]: 39 µM
VMAPDAVRI [Peptide 63]	31	
DMLGRAGGL-OH [Peptide 12]	> 50	
TSADRAVVL [Peptide 28]	39	
CC(C)C[C@H](NC(=O)[C@H](CC(C)C)NC(=O)[C@@H]1CCCN1C(=O)[C@H](C)NC(=O)[C@H](CCCCN)NC(=O)[C@H](C)NC(=O)[C@@H]1CCCN1C(=O)[C@H](CC(C)C)NC(=O)[C@@H](N)CCCNC(=N)N)C(=O)O [Peptide 44]	0.03	
GLDSRAYRL-OH [Peptide 18]	> 50	
RLGRLLNRI-OH [Peptide 56]	> 50	
LPAERAHEL-OH [Peptide 31]		IC50 [1]: > 50 µM
QLAPGLQLI-OH [Peptide 46]	> 50	
VMMSEIAGL [Peptide 32]	13	
GLDARAYRL-OH [Peptide 19]	> 50	
VLPACLGIL [Peptide 67]	12	
FLLPRGLAI-OH [Peptide 54]	> 50	percentage of proliferation within CD3+CD8+CD56- cells (CD3+CD8+CD56- T-cells; donor 2): 15.8%; percentage of proliferation within CD3+CD8+CD56- cells (CD3+CD8+CD56- T-cells; donor 4): 0.2%; percentage of proliferation within CD3+CD8+CD56- cells (CD3+CD8+CD56- T-cells; donor 6): 1.6%
VSNLRTGKL-OH [Peptide 27]		IC50 [1]: > 50 µM
WMCDRAVDL-OH [Peptide 9]		IC50 [1]: > 50 µM
EMGRAPLDL-OH [Peptide 43]	> 50	
FMTRLGPLL [Peptide 60]		IC50 [1]: 37 µM
KMNAKAATL [Peptide 4]	15	
VEAFRTRPL-OH [Peptide 16]	> 50	
TMITFRLRL [Peptide 33]	2.4	
PMAPLAPLL [Peptide 20]	3	
RMPPLGHEL [Peptide 62]		IC50 [1]: 4 µM
SMAGRAGQL-OH [Peptide 2]	> 50	

Source: PMC2829052, “Mycobacterium tuberculosis Peptides Presented by HLA-E Molecules Are Targets for Human CD8^+ T-Cells with Cytotoxic as well as Regulatory Activity” (PLoS Pathogens, 2010)
